From patent publication US10329282B2, “Rho-associated protein kinase inhibitor, pharmaceutical composition comprising the same, as well as preparation method and use thereof” (Beijing Tide Pharmaceutical Co., Ltd., priority 2017, dated 2019) come the findings set out here.

Sequence of ROCK2 (O75116 1-553): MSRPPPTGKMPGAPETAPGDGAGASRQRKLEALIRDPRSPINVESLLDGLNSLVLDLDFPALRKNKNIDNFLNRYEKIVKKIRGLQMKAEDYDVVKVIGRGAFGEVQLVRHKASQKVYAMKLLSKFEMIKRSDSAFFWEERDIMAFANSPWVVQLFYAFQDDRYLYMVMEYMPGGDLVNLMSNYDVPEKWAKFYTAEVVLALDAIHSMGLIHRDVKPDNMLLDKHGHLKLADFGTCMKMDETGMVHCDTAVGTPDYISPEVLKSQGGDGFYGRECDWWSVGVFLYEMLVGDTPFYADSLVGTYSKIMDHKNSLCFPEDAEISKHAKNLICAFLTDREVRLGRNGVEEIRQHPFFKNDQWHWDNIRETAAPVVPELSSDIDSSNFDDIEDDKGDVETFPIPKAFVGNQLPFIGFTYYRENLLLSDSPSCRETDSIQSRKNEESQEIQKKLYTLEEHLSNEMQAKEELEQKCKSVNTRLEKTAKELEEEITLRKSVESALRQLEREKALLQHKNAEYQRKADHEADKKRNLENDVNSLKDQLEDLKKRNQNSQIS

The target of this test is ROCK2 (Homo sapiens (Human), UniProt O75116). The test can be described thus: ROCK2 kinase IC50 assay (CISBIO HTRF KinEASE-STK S2 kit). The class given is biochemical. Conditions: ROCK2 from Carna Biosciences, 2 h incubation at room temperature. How it is done:
The kinase IC50 was determined by a commercialized CISBIO kinase detection kit, HTRF KinEASE-STK S2 kit (62ST2PEC). ROCK2 (01-119) employed in the reaction was purchased from Carna Biosciences.
Before the assay, the following working solutions as needed were formulated with corresponding reagents according to the instruction of the kinase detection kit: 1×kinase buffer, 5×STK-52 substrate working solution (1.5 μM) and 5×ATP working solution (1.5 μM), 5×ROCK2 kinase working solution, 4×Streptavidin-XL665 working solution, and 4×STK-Ab-Cryptate 2 detection solution. Then the assay was performed according to the following procedure.
A solution of a compound at a concentration of 10000 nM was prepared with the 1×kinase buffer containing 2.5% DMSO. Gradient dilution of the solution of the compound was performed with the kinase buffer containing DMSO, so as to obtain solutions of a test compound at 9 different concentrations. In addition to wells of test compounds, a positive well (containing all the reagents except the compound) and a negative well (containing all the reagents except the test compound and kinase) were set. Except for the control wells (positive and negative wells), a solution of a test compound (4 μL) was added to each of the reaction wells, and a solution of 2.5% DMSO was added to the control wells. Then the substrate (2 μM, i.e., 2 μL 5×STK-S2 substrate working solution) was added to each of the reaction wells. The 5×ROCK2 kinase working solution (2 μL, containing 1.4 ng ROCK2 kinase) was added to each of the reaction wells except for the negative well, the volume of which was made up with the 1×kinase buffer (2 μL). The 5×ATP working solution (2 μL) was added to each of the reaction wells, and the mixtures were incubated at room temperature for 2 hours. After the kinase reaction was complete, the 4×Streptavidin-XL665 working solution was added to each of the reaction wells, the solutions were mixed, followed by immediate addition of the 4×STK-Ab-Cryptate 2 detection solution (5 μL), and the mixtures were incubated at room temperature for 1 hour. The fluorescence signal was read on ENVISION (Perkinelmer) (excitation wavelength: 320 nm, and emission wavelength: 665 nm and 615 nm). The inhibitory rate in each well was calculated based on the fluorescence intensity value: ER (Emission Ratio)=(fluorescence intensity at 665 nm/fluorescence intensity at 615 nm); inhibitory rate=(ERpositive−ERtest compound) (ERpositive−ERnegative)*100%. Curves were plotted and fitted to obtain the median inhibitory concentration (IC50) of each teat compound with the PRISM 5.0 software.
Regarding `CN1CCC(N2CCCC(NC(=O)c3cc4ccc(-c5nccc(Nc6ccc7[nH]ncc7c6)n5)cc4[nH]3)C2)CC1` (stereo not shown) [TDI01318, 6-(4-((1H-indazol-5-yl)amino)pyrimidin-2-yl)-N-(1′-methyl-[1,4′-bipiperidin]-3-yl)-1H-indole-2-carboxamide], the IC50 (in general, the concentration needed to halve the response being measured) turned out to be 18 nM.
With `O=C(Nc1ccncc1)c1cc2ccc(-c3nccc(Nc4ccc5[nH]ncc5c4)n3)cc2[nH]1` [TDI01153, 6-(4-((1H-indazol-5-yl)amino)pyrimidin-2-yl)-N-(pyridin-4-yl)-1H-indole-2-carboxamide] the figure was 16 nM; with `CN(C(=O)c1cc2ccc(-c3nccc(Nc4ccc(-c5cn[nH]c5)cc4)n3)cc2[nH]1)C(CO)CO` [TDI01344-2A, 6-(4-((4-(1H-pyrazol-4-yl)phenyl)amino)pyrimidin-2-yl)-N-(1,3-dihydroxypropan-2-yl)-N-methyl-1H-indole-2-carboxamide], 107 nM; with `CN1CCC(NC(=O)c2cc3ccc(-c4nccc(Nc5ccc6[nH]ncc6c5)n4)cc3s2)CC1` [TDI01114, 6-(4-((1H-indazol-5-yl)amino)pyrimidin-2-yl)-N-(1-methylpiperidin-4-yl)benzo[b]thiophene-2-carboxamide], 157 nM.
With `CCNC(=O)c1cc2cc(-c3nccc(Nc4ccc(-c5cn[nH]c5)cc4)n3)ccc2[nH]1` [TDI01408] the figure was 400 nM.
With `CN1CCC2(CC1)CCN(C(=O)c1cc3ccc(-c4nccc(Nc5ccc6[nH]ncc6c5)n4)cc3[nH]1)CC2` [TDI01320, (6-(4-((1H-indazol-5-yl)amino)pyrimidin-2-yl)-1H-indol-2-yl)(9-methyl-3,9-diazaspiro[5.5]undecan-3-yl)methanone] the figure was 410 nM; with `CN(C)C(=O)N1Cc2ccc(-c3nccc(Nc4ccc(-c5cn[nH]c5)cc4)n3)cc2C1` [TDI01366, 5-(4-((4-(1H-pyrazol-4-yl)phenyl)amino)pyrimidin-2-yl)-N,N-dimethylisoindoline-2-carboxamide], 260 nM.
`CC(C)NC(=O)c1cc2ccc(-c3nc(Nc4ccc(-c5cn[nH]c5)cc4)c4sccc4n3)cc2[nH]1` [TDI01370, 6-(4-((4-(1H-pyrazol-4-yl)phenyl)amino)thieno[3,2-d]pyrimidin-2-yl)-N-isopropyl-1H-indole-2-carboxamide] displayed an IC50 of 109 nM.
`O=C(NC1CCC1)c1cc2ccc(-c3nc(Nc4ccc(-c5cn[nH]c5)cc4)c4sccc4n3)cc2[nH]1` [TDI01424, 6-(4-((4-(1H-pyrazol-4-yl)phenyl)amino)thieno[3,2-d]pyrimidin-2-yl)-N-cyclobutyl-1H-indole-2-carboxamide] came in with a half-inhibitory concentration (IC50) of 138 nM.
Then `CC(C)NC(=O)c1cc2ccc(-c3nc(Nc4ccc5[nH]ncc5c4)c4sccc4n3)cc2[nH]1` [TDI01141, 6-(4-((1H-indazol-5-yl)amino)thieno[3,2-d]pyrimidin-2-yl)-N-isopropyl-1H-indole-2-carboxamide], with 73 nM.
Compound `O=C(c1cc2ccc(-c3nccc(Nc4ccc(-c5cn[nH]c5)cc4)n3)cc2[nH]1)N1CCOCC1` [TDI01331, (6-(4-((4-(1H-pyrazol-4-yl)phenyl)amino)pyrimidin-2-yl)-1H-indol-2-yl)(morpholino)methanone] yielded an IC50 of 260 nM.
On to `CC(C)NC(=O)c1cc2ccc(-c3nccc(Nc4ccc5[nH]ncc5c4)n3)cc2o1` [TDI01102, 6-(4-((1H-indazol-5-yl)amino)pyrimidin-2-yl)-N-isopropylbenzofuran-2-carboxamide], for which the IC50 amounted to 110 nM.
`Cn1cc(NC(=O)c2cc3ccc(-c4nccc(Nc5ccc6[nH]ncc6c5)n4)cc3[nH]2)cn1` [TDI01134, 6-(4-((1H-indazol-5-yl)amino)pyrimidin-2-yl)-N-(1-methyl-1H-pyrazol-4-yl)-1H-indole-2-carboxamide] returned an IC50 of 62 nM.
With `CN(C(=O)c1cc2ccc(-c3nccc(Nc4ccc(-c5cn[nH]c5)cc4)n3)cc2[nH]1)C1CCNC1` (stereo not shown) [TDI01345, 6-(4-((4-(1H-pyrazol-4-yl)phenyl)amino)pyrimidin-2-yl)-N-methyl-N-(pyrrolidin-3-yl)-1H-indole-2-carboxamide] the figure was 333 nM; with `CN(C)C(=O)c1cc2ccc(-c3nccc(Nc4ccc(-c5cn[nH]c5)cc4)n3)cc2[nH]1` [TDI01294, 6-(4-((4-(1H-pyrazol-4-yl)phenyl)amino)pyrimidin-2-yl)-N,N-dimethyl-1H-indole-2-carboxamide], 352 nM.
Then `CN(C)c1cnccc1NC(=O)c1cc2ccc(-c3nccc(Nc4ccc5[nH]ncc5c4)n3)cc2[nH]1` [TDI01289, 6-(4-((1H-indazol-5-yl)amino)pyrimidin-2-yl)-N-(3-(dimethylamino)pyridin-4-yl)-1H-indole-2-carboxamide], with 72 nM; and `O=C(NC1CC1)c1cc2ccc(-c3nccc(Nc4ccc5[nH]ncc5c4)n3)cc2s1` [TDI01111, 6-(4-((1H-indazol-5-yl)amino)pyrimidin-2-yl)-N-cyclopropylbenzo[b]thiophene-2-carboxamide], with 100 nM; and `N#Cc1cnccc1NC(=O)c1cc2ccc(-c3nccc(Nc4ccc(-c5cn[nH]c5)cc4)n3)cc2[nH]1` [TDI01829B], with 82 nM.
Then `CC(C)NC(=O)c1cc2ccc(-c3nc(Nc4ccc5[nH]ncc5c4)c4scnc4n3)cc2[nH]1` [TDI01149, 6-(7-((1H-indazol-5-yl)amino)thiazolo[4,5-d]pyrimidin-5-yl)-N-isopropyl-1H-indole-2-carboxamide], with 100 nM.
`CN(C)c1ccc(NC(=O)c2cc3ccc(-c4nccc(Nc5ccc6[nH]ncc6c5)n4)cc3[nH]2)cn1` [TDI01221, 6-(4-((1H-indazol-5-yl)amino)pyrimidin-2-yl)-N-(6-(dimethylamino)pyridin-3-yl)-1H-indole-2-carboxamide] had an IC50 of 91 nM.
Then `CC(C)NC(=O)c1c[nH]c2ccc(-c3nccc(Nc4ccc5[nH]ncc5c4)n3)cc12` [TDI01285, 5-(4-((1H-indazol-5-yl)amino)pyrimidin-2-yl)-N-isopropyl-1H-indole-3-carboxamide], with 116 nM.
Then `CN(CC(F)(F)F)C(=O)c1cc2ccc(-c3nccc(Nc4ccc(-c5cn[nH]c5)cc4)n3)cc2[nH]1` [TDI01355, 6-(4-((4-(1H-pyrazol-4-yl)phenyl)amino)pyrimidin-2-yl)-N-methyl-N-(2,2,2-trifluoroethyl)-1H-indole-2-carboxamide], with 54 nM; and `CC(C)NC(=O)c1cc2ccc(-c3nc(Nc4ccc5[nH]ncc5c4)c4occc4n3)cc2s1` [TDI01135, 6-(4-((1H-indazol-5-yl)amino)furo[3,2-d]pyrimidin-2-yl)-N-isopropylbenzo[b]thiophene-2-carboxamide], with 123 nM; and `O=C(Nc1ccncc1)c1cc2ccc(-c3nccc(Nc4ccc(-c5cn[nH]c5)cc4)n3)cc2[nH]1` [TDI01363, 6-(4-((4-(1H-pyrazol-4-yl)phenyl)amino)pyrimidin-2-yl)-N-(pyridin-4-yl)-1H-indole-2-carboxamide], with 104 nM.
Then `C[C@@H](NC(=O)c1cc2ccc(-c3nccc(Nc4ccc(-c5cn[nH]c5)cc4)n3)cc2[nH]1)c1ccncc1` [TDI01849B, (R)-6-(4-((4-(1H-pyrazol-4-yl)phenyl)amino)pyrimidin-2-yl)-N-(1-(pyridin-4-yl)ethyl)-1H-indole-2-carboxamide], with 210 nM.
In turn, `CNC(=O)c1cc2ccc(-c3nccc(Nc4ccc5[nH]ncc5c4)n3)cc2s1` [TDI01109, 6-(4-((1H-indazol-5-yl)amino)pyrimidin-2-yl)-N-methylbenzo[b]thiophene-2-carboxamide] came in with an IC50 of 447 nM.
As to `O=C(Nc1nncs1)c1cc2ccc(-c3nccc(Nc4ccc5[nH]ncc5c4)n3)cc2[nH]1` [TDI01247, 6-(4-((1H-indazol-5-yl)amino)pyrimidin-2-yl)-N-(1,3,4-thiadiazol-2-yl)-1H-indole-2-carboxamide], the IC50 amounted to 134 nM.
With `CC(C)NC(=O)c1cc2ccc(-c3nc(Nc4ccc5[nH]ncc5c4)c4ccn(CCN(C)C)c4n3)cc2s1` [TDI01122, 6-(4-((1H-indazol-5-yl)amino)-7-(2-(dimethylamino)ethyl)-7H-pyrrolo[2,3-d]pyrimidin-2-yl)-N-isopropylbenzo[b]thiophene-2-carboxamide] the figure was 219 nM; with `O=C(Nc1ccncc1)c1cc2ccc(-c3nccc(Nc4ccc(-c5cn[nH]c5)cc4)n3)cc2s1` [TDI01393], 258 nM; with `CN(C(=O)c1cc2ccc(-c3nccc(Nc4ccc(-c5cn[nH]c5)cc4)n3)cc2[nH]1)C1CCOCC1` [TDI01381], 341 nM.
In the case of `CN(C(=O)c1cc2ccc(-c3nccc(Nc4ccc(-c5cn[nH]c5)cc4)n3)cc2[nH]1)C1CC(O)C1` (stereo not shown) [TDI01418], the IC50 worked out at 272 nM.
